Experimental data taken from patent US20030088061A1, “Materials and methods to modulate ligand binding/enzymatic activity of alpha/beta proteins containing an allosteric regulatory site” (priority 2000, published 2003).
Converted amounts (≈) assume the structure as drawn. Each block holds one compound with its values, some of them ahead of it.

Experiments:
CD11b/CD18 = biological target: T1, CD11b/CD18 (Homo sapiens, UniProt P11215); assay: Adhesion of JY/CD11b cells to immobilized iC3b; assay type: cell-based; conditions: dose-dependent; relative to control DMSO treatment
T1 construct: expressed in transfected cells; host or cells: JY (human B lymphoblastoid) cells
Method: B. Adhesion Assay of JY/CD11b Cells to Immobilized iC3b
Briefly, each well of a 96-well plate was coated overnight at 4° C. with 50 μl glycophorin (10 μg/ml), iC3b (5 μg/ml) or with anti-CD18 monoclonal antibody (22F12C, 5 μg/ml) and anti-CD11b monoclonal antibody (44AACB, 5 µg/ml) in bicarbonate buffer (pH 9.6). Plates were blocked with human serum albumin in D-PBS for one hr at room temperature. JY cells transfected with CD11b (JY/CD11b cells) (100 μl at 1×10^6 cells/ml) in adhesion buffer were added to each well and incubation was carried out at 37° C. for 30 min. Plates were fixed and analyzed as described above in Example 1. Percentage of cells binding was determined using the equation below. [formula]
Data was normalized using the formula: [formula]

ftsZ [1] = biological target: T2, ftsZ (Escherichia coli, UniProt P0A9A6); assay: ftsZ GTPase assay; assay type: biochemical
T2 sequence (P0A9A6 whole entry): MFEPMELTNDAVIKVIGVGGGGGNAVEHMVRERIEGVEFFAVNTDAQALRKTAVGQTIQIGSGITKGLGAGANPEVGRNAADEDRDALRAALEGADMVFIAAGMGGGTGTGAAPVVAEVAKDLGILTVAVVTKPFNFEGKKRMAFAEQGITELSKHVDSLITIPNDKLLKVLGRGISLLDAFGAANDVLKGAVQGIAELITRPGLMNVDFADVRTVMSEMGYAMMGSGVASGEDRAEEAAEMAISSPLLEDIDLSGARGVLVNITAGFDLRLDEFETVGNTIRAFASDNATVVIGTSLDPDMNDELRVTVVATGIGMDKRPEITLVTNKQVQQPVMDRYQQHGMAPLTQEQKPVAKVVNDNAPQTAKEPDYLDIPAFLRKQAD
Method: An alternative assay that may be more sensitive was also devised. In this assay, 100 μg/ml ftsZ was incubated with 0.5 μM ^32P-γ-GTP. The GTPase activity of ftsZ liberates ^32PO4. By terminating the reaction with 25 mg/ml activated charcoal in 100 mM NaH2PO4 and centrifuging the product, the remaining ^32P-γ-GTP is trapped by the charcoal. Accordingly, the ^32PO4 that remains in the supernatant can be measured, providing a measurement of GTPase inhibition.

ftsZ [2] = biological target: T2, ftsZ; assay: ftsZ polymerization assay; assay type: biochemical; conditions: read-out: IC50, ftsZ polymerization screen
Method: A polymerization assay for the identification of ftsZ inhibitors that can be performed in microtiter wells has been devised. The polymerization assay is an adaptation of a tubulin polymerization assay [Bollag et al., Cancer Research 55:2325-2333 (1995)], and involves the reversible polymerization of ftsz in a GTP-dependent fashion.
In the presence of GTP and 10 mM CaCl2, 5 nm ftsZ linear polymers assemble into higher order polymers [Yu et al., EMBO 16:5455-5463 (1997)] that are large enough to be trapped by a 0.2 μm filter. The protein that is retained on the filter can be stained and detected in a colorimetric assay. A reaction consisting of 300 μg/ml of ftsZ polymerized by 100 μM GTP was screened against candidate ftsZ inhibitors at 10 μM.

[3] = test system: permeable tolC strain (plasmid only); assay: microbe, parasite or virus in culture; assay type: cell-based, E. coli; conditions: Escherichia coli, read-out: MIC, control strain
Method: (§1) A permeable bacteria] strain (AB734 TN10::tolC) was used in the screening method to maximize the ability of the compounds to cross the gram negative cell wall. Assays were conducted in accordance with the NCCLS protocols referenced herein.
(§2) It was of further interest to determine whether those compounds with antimicrobial activity worked in a ENR-dependent fashion. Two strains of the permeable tolC strain were constructed. In the first strain, the ENR protein was overexpressed by placing it under control of its own promoter on a moderate copy number plasmid, and the second strain served as a control including only the plasmid.

[4] = test system: permeable tolC strain overexpressing ENR; assay: microbe, parasite or virus in culture; assay type: cell-based, E. coli; conditions: Escherichia coli, read-out: MIC, ENR-overexpressing strain
Method: as §1, §2

SMILES: Nc1nc2c(ncn2[C@@H]2O[C@H](COP(=O)(O)OP(=O)(O)O)[C@@H](O)[C@H]2O)c(=O)[nH]1 [GDP]
IC50 (ftsZ [1]): 8 µM
IC50 (ftsZ [2]): 250 µM

SMILES: Oc1cc(Cl)ccc1Oc1ccc(Cl)cc1Cl [triclosan]
MIC [3]: 0.031 µg/mL (≈ 0.107 µM)
MIC [4]: 1 µg/mL (≈ 3.45 µM)

Continued, values first:

stimulation of CD11b/CD18 binding to iC3b (CD11b/CD18): two times
SMILES: O=[N+]([O-])c1cc(Cl)c(Sc2ccc(Cl)cc2Cl)cc1F [Cmpd C]

stimulation of CD11b/CD18 binding to iC3b (CD11b/CD18): two times
SMILES: CCCCC(CCCC)N(C(=O)CN1CC(c2ccc3c(c2)OCO3)C(C)C1C(C)(C)CCCC)c1ccc(F)c(C)c1 (stereo not shown) [Cmpd H]

stimulation of CD11b/CD18 binding to iC3b (CD11b/CD18): two times
SMILES: CCCCC(CCCC)N(C(=O)CN1CC(c2ccc3ccccc3c2)C(C(=O)O)C1c1ccc(OC)cc1)c1ccc(F)c(C)c1 (stereo not shown) [Cmpd I]
